Measured values published in publication PMC8750417, “Intracellular Amplifiers of Reactive Oxygen Species Affecting Mitochondria as Radiosensitizers” (Cancers, 2021).
Read-outs that look alike come from different tables or passages of the source.

Assays:
[1] = n-octanol/water partition coefficient (logP) by RP-TLC; type: physicochemical
Method: Determination of n-octanol/water partition coefficients (LogP) […]
mixture of dichloromethane/CH3OH at proper concentrations. Commercially available […]
7.4) (6/4, v/v) was used. The solvent migration distance was around 4.5 cm. The plates […]
and its distance was manually measured. All measurements were done in at least triplicate and average values were used in further calculations. All experiments were performed at ambient temperature (22 ± 2 °C). […]

[2] = Solubility in RPMI 1640 medium, precipitation seen by bright field optical microscopy; details: DMSO 1%
Method: The latter medium was selected, since we used it for the cellular assays. […] Then we monitored the formation of (not detectable in the previous experiment) aggregated species in prodrug solutions that appeared transparent (concentrations < 50 µM) by using dynamic light scattering. […]
Solubility of drugs in aqueous buffers
Observing prodrug precipitation by using bright field optical microscopy […]
glutamine (1 %), and penicillin/streptomycin (1 %) was filled into 96-well microtiter plates (100 µL for each well) and compounds in DMSO stock solution (1 µL) were added. Each well was monitored by using bright field optical microscopy both immediately after […]

A2780 cells [3] = test: Accumulation of prodrugs in A2780 cells (atomic emission spectrometry of B, Fe); type: cell-based, human; details: 5 µM, 4 h, Zn as internal standard, carrier = 1
Method: colored arrow. After the initial lagging period, the oxidation reactions reach their maximum […]
Accumulation of prodrugs in A2780 cells
A2780 cells (around 150 cells/µL, 40 mL) were seeded in T175 flasks (Greiner, Germany) in RPMI 1640 medium supplemented with 5% FBS, 1% L-glutamine, and 1% penicillin/streptomycin and incubated for 3-4 days at 37°C in the chamber filled with 5%
CO2. Next, a fresh portion of RPMI 1640 medium supplemented with 5% FBS, 1% L - glutamine, and 1% penicillin/streptomycin was added to replace old medium. Prodrugs ([…], 400 µL in DMSO, final concentration: 5 µM) or carrier (DMSO, 400 µL, final concentration: 1%. v/v) were added into the bottles and the cells were further incubated at 37°C for 4 h. The cells were washed with DPBS (2 x 10 mL) and trypsinated (trypsin/EDTA, 0.025%/0.01%, v/v, 2 mL). After the cells were harvested and centrifuged (5 min, 1000 rpm) in 50 mL falcon tube, the cell pellet was re-suspended in DPBS (1 mL), the suspension - transferred to 1.5 mL EP tube and centrifuged one more time (2 min, 2000 rpm). The obtained cell pellet was shaken with concentrated HNO3 (65%, 100 µL) in an Eppendorf Thermomixer for 10 min at 95° C, 600 rpm. […] The insoluble components were separated by centrifugation (30 min, 13000 rpm) and the supernatant was analyzed by atomic emission spectrometry (AES) for the detection of B, Zn and Fe. […]

A2780 cells [4] = test: Total intracellular ROS (CM-DCFH-DA), A2780; type: cell-based, human; details: 2 h
Method: Monitoring total intracellular ROS (tROS)
A2780 cells were seeded in RPMI 1640 medium containing 5% FBS, 1% L-glutamine and 1% penicillin/streptomycin in a 24-well microtiter plate (total volume 0.5 mL) at a density of 200 cells/µL one day before the experiment. On the day of the experiment, the cells were washed twice with DPBS buffer and the medium was replaced with HBSS (Hanks' Balanced Salt solution, 500 μL). CM-DCFH-DA (5-(6-)chloromethyl-2',7'- dichlorodihydrofluorescein diacetate, Thermo- Fisher) solution (0.1 mM in DMSO, 5 μL) was added (final concentration 1 µM) and the cells were incubated in the dark chamber filled with CO2 (5%) at 37 °C for 15 min. […] Finally, the fluorescence of live cells (λex = 488 nm, λem = 525 nm) in the suspensions was determined by using flow cytometry (Figure 4A, 5C).
Intracellular ROS release in Jurkat cells was monitored analogously (Figure S58).
Figure S58. […] OY-axis “Fluorescence”: the increase of the mean fluorescence (λex = 488 […]

Compound | logP (Hydrolyzed Prodrug) ([1]; n-octanol/water partition coefficient of the hydrolyzed boronic acid (_BA) form of the prodrug named) | logP (Prodrug) ([1]; n-octanol/water partition coefficient of the intact prodrug (or control 2c_c), RP-TLC, MOPS pH 7.4) | Solubility ([2]; 48 h incubation in RPMI 1640, FBS 5%, first signs of precipitation) [µM] | first signs of precipitation ([2]; immediately after dilution in RPMI 1640, FBS 5%) [µM] | Relative iron amount (A2780 cells [3]) | total ROS (tROS) vs background (A2780 cells [4]) | logP (Hydrolyzed Prodrug) [1] | logP (Prodrug) ([1]; pH 7.4)
CC1(C)OB(c2ccc(COC(=O)N(Cc3cn(Cc4ccc(Cn5cc(Cc6ccccc6)nn5)cc4)nn3)[c-]3cccc3)cc2)OC1(C)C.[Fe+2].c1cc[cH-]c1 [2c] | 3.23 ± 0.11 | 5.37 ± 0.15 | 30 | 30 | 5.0 ± 0.1 | significantly higher than its background levels | – | –
CCOC(=O)CCCCCn1cc(CN(C(=O)OCc2ccc(B3OC(C)(C)C(C)(C)O3)cc2)[c-]2cccc2)nn1.[Fe+2].c1cc[cH-]c1 [compound 1] | – | – | – | – | 1.4 ± 0.1 | – | 2.83 ± 0.07 | 4.87 ± 0.05
